Laboratory results: PubChem BioAssay (NCI)
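Results reflect a 48-hour exposure of cells in 96-well plates to compound at five concentrations. Here, GI50 denotes the concentration required for 50% inhibition of growth. TGI denotes the concentration required for complete inhibition of growth.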

How the values were obtained:
Experiment in all cases: NCI anticancer screen, dose series, 48 h
[1] = system: MDA-MB-231 breast
[2] = system: SNB-75 CNS
[3] = system: MALME-3M melanoma
[4] = system: HCT-116 colon
[5] = system: MCF7 breast
[6] = system: SK-MEL-2 melanoma
[7] = system: TK-10 renal
[8] = system: K-562 leukemia
[9] = system: HT29 colon
[10] = system: MOLT-4 leukemia

| SMILES | TGI [1] [µM] | TGI [2] [µM] | TGI [3] [µM] | TGI [4] [µM] | TGI [5] [µM] | TGI [6] [µM] | TGI [7] [µM] | TGI [8] [µM] | TGI [9] [µM] | TGI [10] [µM] | GI50 [1] [µM] | GI50 [2] [µM] | GI50 [3] [µM] | GI50 [5] [µM] | GI50 [6] [µM] | GI50 [7] [µM] | GI50 [8] [µM] | GI50 [9] [µM] |
| --- | --- | --- | --- | --- | --- | --- | --- | --- | --- | --- | --- | --- | --- | --- | --- | --- | --- | --- |
| NC1NCCC(=O)N1CCc1c[nH]c2ccccc12 (stereo unspecified) | 34.4 | 22.9 | 40.1 | 26.5 | 29.2 | 35.5 | 51.7 | 51 | 82.9 | – | – | – | – | – | – | – | – | – |
| CC(C)(C)CI | – | 67.6 | 46.6 | 39.7 | – | 37.6 | > 100 | 58.4 | > 10 | 76.9 | – | – | – | – | – | – | – | – |
| Cc1cc(N=Cc2c(CO)cnc(C)c2O)c(N=Cc2c(CO)cnc(C)c2O)cc1C | > 100 | > 100 | > 100 | > 100 | > 100 | – | > 100 | > 100 | > 100 | – | – | – | – | – | – | – | – | – |
| CN(/N=C/C=N/N(C)C1=NCCN1)C1=NCCN1 | > 100 | > 100 | > 100 | > 100 | > 100 | – | > 100 | > 100 | > 100 | > 100 | – | – | – | – | – | – | – | – |
| O[C@@]12Cc3c([nH]c4ccccc34)[C@@H]3Oc4c(-c5ccccc5)ccc5c4[C@@]31CCN(CC1CC1)[C@@H]2C5 | – | – | 3.99 | 3.1 | 3.22 | 3.3 | – | 7.56 | 3.29 | 11 | – | – | – | – | – | – | – | – |
| Cc1ccc(S(=O)(=O)Nn2c(S)c(C#N)c(-c3ccc(Cl)cc3)c(C#N)c2=O)cc1 | > 100 | > 100 | > 100 | > 100 | > 100 | > 100 | 76 | > 100 | – | > 100 | – | – | – | – | – | – | – | – |
| CCCCCCCCCCCCCCCCCCOc1ccccc1COP(=O)(O)OOCC[N+](C)(C)C | 2.26 | 3.51 | 3.21 | – | 3.32 | 9.65 | 4.49 | 50 | 5.38 | – | 0.932 | 0.96 | 1.16 | 1.14 | 1.71 | 1.35 | 1.23 | 1.21 |
| CC#CC#C/C=C1\C=CC2(OC=CC2O)O1 (stereo unspecified) | – | > 23.3 | > 23.3 | 22.9 | – | > 23.3 | > 23.3 | > 23.3 | > 23.3 | > 23.3 | – | – | – | – | – | – | – | – |
| S=C(S)NCCN1CCNCC1 | > 100 | > 100 | 82.5 | > 100 | > 100 | > 100 | 58.4 | > 100 | > 100 | – | – | – | – | – | – | – | – | – |
| CC(C)=CCc1cc(/C=C/C(=O)O)cc(CC=C(C)C)c1O | > 100 | – | – | > 100 | > 100 | > 100 | > 100 | > 100 | > 100 | > 100 | – | – | – | – | – | – | – | – |
| CC(C)C(CCOS(=O)(=O)O)CCC(C)[C@H]1[C@@H](O)C(O)C2[C@]3(O)C[C@@H](O)C4(O)C[C@@H](O)CC[C@]4(C)C3CC[C@@]21C (stereo partly specified) | – | – | > 100 | > 100 | – | > 100 | > 100 | > 100 | > 100 | – | – | – | – | – | – | – | – | – |
| O=C(O)c1ccc(Nc2cnc3cc(C(F)(F)F)ccc3n2)cc1 | > 100 | > 100 | > 100 | > 100 | > 100 | – | > 100 | > 100 | > 100 | > 100 | – | – | – | – | – | – | – | – |
| O=C1CN(c2ccccc2)C(=O)CN1NCNN1CC(=O)N(c2ccccc2)CC1=O | – | > 100 | > 100 | > 100 | > 100 | – | > 100 | – | > 100 | > 100 | – | – | – | – | – | – | – | – |
| CC(=O)OCC1OC(O[C@H]2C=C[C@@H](C(=O)OCc3ccccc3)n3c(=O)n(-c4ccccc4)c(=O)n32)C(OC(C)=O)C(OC(C)=O)C1OC(C)=O (stereo partly specified) | 4.12 | 23.5 | – | – | – | 10.1 | 3.92 | 8.72 | 3.49 | 5.72 | – | – | – | – | – | – | – | – |
| O=C(CC(=O)N1N=C(N(c2ccccc2)c2ccccc2)CC1c1ccccc1)Nc1cccc(Cl)c1 (stereo unspecified) | > 100 | > 100 | – | > 100 | > 100 | > 100 | > 100 | > 100 | > 100 | > 100 | – | – | – | – | – | – | – | – |
| O=C(Nc1ccc(Cl)cc1)c1cc(S(=O)(=O)N2CCNNC2=O)c(S)cc1Cl | > 100 | > 100 | > 100 | > 100 | > 100 | > 100 | > 100 | > 100 | – | > 100 | – | – | – | – | – | – | – | – |
| COc1cccc(/C=N/[N-]C(N)=O)c1[O-].[Co+2].[OH3+].c1ccncc1 | – | > 100 | > 100 | > 100 | – | > 100 | – | – | > 100 | > 100 | – | – | – | – | – | – | – | – |
| O=CC1OC(=O)c2cc(O)c(O)c(O)c2-c2c(cc(O)c(O)c2O)C(=O)OC1C1OC(=O)c2cc(O)c(O)c(O)c2-c2c(O)c(O)c3oc(=O)c4c(c(O)c(O)c5oc(=O)c2c3c54)-c2c(cc(O)c(O)c2O)C(=O)OCC1O (stereo unspecified) | 37 | 93.8 | > 100 | 32.6 | 40.6 | > 100 | – | 71.8 | 29.6 | 90.1 | – | – | – | – | – | – | – | – |
| COc1ccc(CNc2nc3cc(C(F)(F)F)ccc3nc2C(=O)O)cc1 | > 100 | > 100 | – | 41 | 64.9 | 62.2 | – | 61.3 | 73.9 | 52.6 | – | – | – | – | – | – | – | – |
| CCCCCCCCCCCCc1ccsc1-c1ccc(-c2ccc(-c3sccc3CCCCCCCCCCCC)s2)s1 | > 100 | > 100 | – | > 100 | > 100 | > 100 | > 100 | > 100 | > 100 | > 100 | – | – | – | – | – | – | – | – |
| CN(C)NC1=NS(=O)(=O)c2cc3c(=O)n(C)[nH]c3cc2S1 | – | > 10 | > 10 | > 10 | > 10 | > 10 | > 10 | > 10 | > 10 | > 10 | – | – | – | – | – | – | – | – |
| O=C1c2ccccc2C(=O)N1NC1=NCCN1 | > 100 | – | > 100 | > 100 | > 100 | > 100 | > 100 | > 100 | > 100 | > 100 | – | – | – | – | – | – | – | – |
| CCCC(C(=O)OC)C1N=C(NC#N)N(Cc2ccccc2)C1=O (stereo unspecified) | – | 81.1 | > 100 | > 100 | – | > 100 | > 100 | > 100 | > 100 | > 100 | – | – | – | – | – | – | – | – |
